Results on 17 compounds are retold here after ChEMBL document CHEMBL5113371, “Lipolytic enzymes inhibitors: A new way for antibacterial drugs discovery” (Eur J Med Chem, 2021).

Values after ≈ are worked out from the molar mass of the structure shown.

In experiment [1] the test system is Mycobacterium tuberculosis H37Rv. In words: Antibacterial activity against Mycobacterium tuberculosis H37Rv expressing GFP incubated for 7 days. The class given is functional, Mycobacterium tuberculosis variant bovis.
Experiment [2] has the same test system. As to the kind of experiment: Antibacterial activity against Mycobacterium tuberculosis H37Rv expressing GFP infected in mouse Raw264.7 cells incubated for 5 days by SYTO 60 staining method. The class given is functional, Mycobacterium tuberculosis variant bovis.
For experiment [3], the system named is Mycobacterium tuberculosis variant bovis. As to the kind of experiment: Antibacterial activity against VLDL-treated Mycobacterium bovis BCG assessed as level of intrabacterial lipid inclusions profile relative to control. The class given is functional.
Where [4] appears, read: Mycobacterium tuberculosis variant bovis, time 5.0 day.

Turning to `CCCCCCOc1nn(-c2ccc(Oc3ccccc3)cc2)c(=O)o1`, the MIC50 was more than 50 µM in experiment [1] (168 h, time 7 day) and 9.5 µM (≈ 3.37 µg/mL) in experiment [2] (120 h, time 5 day).

As to `O=c1oc(OCCOCc2ccccc2)nn1-c1ccccc1`, the MIC50 in experiment [1] (168 h, time 7 day) is 30.8 µM (≈ 9.62 µg/mL); in experiment [2] (setting [4]), “NE”.

As for `NNC(=O)c1ccncc1` [ISONIAZID], the MIC50 in experiment [1] (168 h, time 7 day) amounted to 1.2 µM (≈ 0.165 µg/mL); in experiment [2] (120 h, time 5 day), 1.2 µM (≈ 0.165 µg/mL).

Turning to `CC(C)COc1nn(-c2ccc(Oc3ccccc3)cc2)c(=O)o1`, the MIC50 in experiment [1] (168 h, time 7 day) worked out at 32 µM (≈ 10.4 µg/mL); in experiment [2] (120 h, time 5 day), 8.5 µM (≈ 2.77 µg/mL).

As for `CCCCCCCCCCCCCCCCOP1(=O)OCCC(C(=O)OC)=C(C)O1` (centres undefined), the MIC50 in experiment [1] (168 h, time 7 day) is 0.5 µM (≈ 0.223 µg/mL); in experiment [2] (setting [4]), “NE”.

`CCCCCCCCCC[C@@H]1CC[P@@](=O)(OC)OC(C)=C1C(=O)OC` displayed an MIC50 in experiment [2] (120 h, time 5 day) of 4.5 µM (≈ 1.69 µg/mL).

Turning to `CCCCCCCCCCCCCCCCO[P@]1(=O)OC[C@H]2COC(=O)C2=C(C)O1`, the MIC50 in experiment [1] (168 h, time 7 day) was 1.7 µM (≈ 0.756 µg/mL); in experiment [2] (setting [4]), “NE”.

Take `O=c1oc(OCCOCc2ccccc2)nn1-c1ccc(Oc2ccccc2)cc1`: the MIC50 in experiment [1] (168 h, time 7 day) is more than 50 µM; in experiment [2] (120 h, time 5 day), 3.5 µM (≈ 1.42 µg/mL).

Take `CCCCCCOc1nn(-c2ccccc2)c(=O)o1`: the MIC50 is 44.6 µM (≈ 11.7 µg/mL) in experiment [1] (168 h, time 7 day) and “NE” in experiment [2] (setting [4]).

As to `CC(C)COc1nn(-c2ccccc2)c(=O)o1`, the MIC50 in experiment [1] (168 h, time 7 day) was more than 50 µM; in experiment [2] (120 h, time 5 day), 17.1 µM (≈ 4.01 µg/mL).

Regarding `COc1nn(-c2cccc(Oc3ccccc3)c2)c(=O)o1`, the Activity in experiment [3] is 90%.

`CCCCC[C@H]1CC[P@@](=O)(OC)OC(C)=C1C(=O)OC`: in experiment [1] (Mycobacterium tuberculosis variant bovis, time 7.0 day), the MIC50 entry is listed as “NE”.

On to `CO[C@H]1/C=C/O[C@@]2(C)Oc3c(C)c(O)c4c(O)c(c(/C=N/N5CCN(C)CC5)c(O)c4c3C2=O)NC(=O)/C(C)=C\C=C\[C@H](C)[C@H](O)[C@@H](C)[C@@H](O)[C@@H](C)[C@H](OC(C)=O)[C@@H]1C` [RIFAMPIN], for which the MIC50 in experiment [1] (168 h, time 7 day) was found to be 0.01 µM (≈ 0.00823 µg/mL); in experiment [2] (120 h, time 5 day) it was 2.9 µM (≈ 2.39 µg/mL).

`CCCCCCCCCCCC[C@H]1CC[P@@](=O)(OC)OC(C)=C1C(=O)OC` gave an MIC50 in experiment [1] (168 h, time 7 day) of more than 100 µM.

In the case of `CCCCCCCCCCCC[C@@H]1CC[P@@](=O)(OC)OC(C)=C1C(=O)OC`, the MIC50 in experiment [1] (168 h, time 7 day) is 40.4 µM (≈ 16.3 µg/mL); in experiment [2] (120 h, time 5 day), 4 µM (≈ 1.61 µg/mL).

As for `CCCCCCCCCC[C@H]1CC[P@@](=O)(OC)OC(C)=C1C(=O)OC`, the MIC50 amounted to 16.6 µM (≈ 6.22 µg/mL) in experiment [1] (168 h, time 7 day) and 3.1 µM (≈ 1.16 µg/mL) in experiment [2] (120 h, time 5 day).

`CCCCCCCCCCCCCCCCO[P@]1(=O)OC[C@@H]2COC(=O)C2=C(C)O1`: the MIC50 entry in experiment [2] (setting [4]) was “NE”.

For orientation: MIC50 means an inhibitory concentration at the 50% level, which refers to growth in some studies and to a panel of isolates in others. Higher therefore signals weaker potency.
